Data published in US20120015396A1, “COMPOSITIONS AND METHODS FOR MODULATING THE ACID-SENSING ION CHANNEL (ASIC)” (Department of Veteran's Affair, United States Technology …, priority 2002, published 2012).

Key:
[1] = target: T1, ASIC channels (Homo sapiens, UniProt P78348); settings: cited from earlier work
T1 sequence (P78348 1-528): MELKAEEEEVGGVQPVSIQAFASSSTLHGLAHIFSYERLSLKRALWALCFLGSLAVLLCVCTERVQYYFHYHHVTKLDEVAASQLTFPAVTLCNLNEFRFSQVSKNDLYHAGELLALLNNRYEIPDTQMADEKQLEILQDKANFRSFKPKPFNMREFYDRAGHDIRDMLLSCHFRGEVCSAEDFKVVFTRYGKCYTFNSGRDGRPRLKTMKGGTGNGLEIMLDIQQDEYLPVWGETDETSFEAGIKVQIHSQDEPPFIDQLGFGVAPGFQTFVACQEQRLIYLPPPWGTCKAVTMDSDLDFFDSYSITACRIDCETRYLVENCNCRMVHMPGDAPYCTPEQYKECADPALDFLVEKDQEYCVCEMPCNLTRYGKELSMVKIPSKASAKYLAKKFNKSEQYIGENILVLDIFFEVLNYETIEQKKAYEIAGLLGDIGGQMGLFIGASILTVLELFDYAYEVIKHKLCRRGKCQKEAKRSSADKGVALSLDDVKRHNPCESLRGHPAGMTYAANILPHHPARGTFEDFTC

[2] = tested on: cortical neurons; settings: primary cultures of cortical neurons; cited from earlier work
[3] = tested on: Schaffer collateral-CA1 synapses in hippocampal slices; test: Baseline field EPSP recording in hippocampal slices; assay type: cell-based; settings: KA 5 mM; slices from +/+ and −/− mice
Experimental: (§1) Transverse hippocampal slices (350-400 μm) were prepared from wild type (+/+) and ASIC knock out (−/−) littermates at 2-4 months of age. For the LTP studies, the applicant was blinded to genotype. The slices were sectioned in ice-cold artificial cerebrospinal fluid (ACSF) containing (in mM) 119 NaCl, 2.5 KCl, 2.5 CaCl2, 1.0 NaH2PO4, 1.3 MgSO4, 26.2 NaHCO3, 11 glucose, pH 7.4, bubbled with 95% O2/5% CO2, and then were incubated in identical solution at 31° C. for 2-5 hours before recording.
Standard extracellular field potential recording techniques were used. Experiments were performed in a submerged chamber, heated to 31±0.5° C. Field postsynaptic excitatory potentials (EPSPs) were evoked in CA1 stratum radiatum by stimulation of Schaffer collaterals with a bipolar stainless steel electrode that was put at the border of CA3-CA1 subfields and recorded with 3M NaCl-filled glass pipettes (<5 MSΩ) using a biological amplifier (WPI, Iso-DAME, FL., USA). A 100 μs test stimulation was delivered every 30 s by a stimulus isolation unit (Grass, SD9, Mass., USA). […] LTP was measured by normalizing the EPSP slopes after HFS to the mean slope of the baseline EPSP before HFS. Data were digitized (10 kHz), filtered at 1 kHz (eight-pole Bessel Filter), monitored on-line, and stored on hard disk using PULSE 8.41 (HEKA, Lambrecht, Germany). […]

[4] = tested on: Schaffer collateral-CA1 synapses in hippocampal slices; test: LTP induced by HFS in hippocampal slices; assay type: cell-based, mice; settings: 10 μM PMA
Experimental: as §1
Standard extracellular field potential recording techniques were used. Experiments were performed in a submerged chamber, heated to 31±0.5° C. Field postsynaptic excitatory potentials (EPSPs) were evoked in CA1 stratum radiatum by stimulation of Schaffer collaterals with a bipolar stainless steel electrode that was put at the border of CA3-CA1 subfields and recorded with 3M NaCl-filled glass pipettes (<5 MSΩ) using a biological amplifier (WPI, Iso-DAME, FL., USA). A 100 μs test stimulation was delivered every 30 s by a stimulus isolation unit (Grass, SD9, Mass., USA). Input-output curves were obtained by plotting the stimulus voltage against the amplitude of EPSPs. […] Stimulus intensity was adjusted to evoke half-maximal responses. LTP was induced by a high-frequency stimulation (HFS, 100 Hz, 1 s, at test intensity). Paired-pulse facilitation (PPF) was observed by applying paired pulses with different intervals (20, 50 ms). LTP was measured by normalizing the EPSP slopes after HFS to the mean slope of the baseline EPSP before HFS. Data were digitized (10 kHz), filtered at 1 kHz (eight-pole Bessel Filter), monitored on-line, and stored on hard disk using PULSE 8.41 (HEKA, Lambrecht, Germany). Off-line analysis was performed by PATCHMACHINE 1.0 (Hoshi Laboratory, Philadelphia, Pa., USA) and IGORPRO 4.0 (WaveMetrics, Lake Oswego, Oreg., USA). Unless otherwise noted, two-sample t-test was used to calculate statistical

For Phe-Met-Arg-Phe-NH2 [FMRFamide], the “modulation of the response of ASIC channels to acid” value [1] is given as “generating a sustained component of current”.
For `N=C(N)NC(=O)c1nc(Cl)c(N)nc1N` [amiloride], the “effect on H+-evoked currents” value [2] is listed as “inhibition”.
With `O=C(O)c1cc(=O)c2ccccc2[nH]1` [KA, kynurenic acid] the “effect on baseline EPSPs” value [3] was “abolished EPSPs”.
For neuropeptide FF, the “modulation of the response of ASIC channels to acid” value [1] is given as “generating a sustained component of current”.
With `CCCCCCCCCCCCCC(=O)O[C@@H]1[C@@H](C)[C@@]2(O)[C@@H](C=C(CO)C[C@]3(O)C(=O)C(C)=C[C@@H]23)[C@@H]2C(C)(C)[C@]12OC(C)=O` [PMA, phorbol 12-myristate 13-acetate] the “Mean EPSP amplitude at 40 min. following HFS” value ([4]; +/+ slices) was 167±15%, the “Mean EPSP amplitude at 40 min. following HFS” value ([4]; −/− slices) was 158±11% and the “effect on LTP” value ([4]; −/− slices) was “restores LTP”.
